Source: the NIST ThermoML archive (doi:10.1021/je201014c)

Test: mn = molality of the nth substance listed, in mol/kg
Details: 100 kPa, Liquid, Direct current cell with electrodes

CCn1cc[n+](C)c1.F[B-](F)(F)F [1-ethyl-3-methylimidazolium tetrafluoroborate] + CN(C)C=O
Details	molar conductivity [S·m2/mol]
283.15 K, m1 = 0.0001021	0.007524
283.15 K, m1 = 0.0002894	0.00744
283.15 K, m1 = 0.0004617	0.007387
283.15 K, m1 = 0.000707	0.007326
283.15 K, m1 = 0.001158	0.007238
283.15 K, m1 = 0.001876	0.007128
283.15 K, m1 = 0.002909	0.007001
283.15 K, m1 = 0.00391	0.006899
283.15 K, m1 = 0.006046	0.006724
283.15 K, m1 = 0.008043	0.006596
283.15 K, m1 = 0.01002	0.006492
283.15 K, m1 = 0.01201	0.006403
283.15 K, m1 = 0.0149	0.006286
288.15 K, m1 = 9.159e-05	0.008075
288.15 K, m1 = 0.0002695	0.007983
288.15 K, m1 = 0.0005098	0.007901
288.15 K, m1 = 0.0006932	0.007851
288.15 K, m1 = 0.001168	0.007746
288.15 K, m1 = 0.001915	0.007619
288.15 K, m1 = 0.002887	0.007489
288.15 K, m1 = 0.003934	0.007374
288.15 K, m1 = 0.005914	0.007199
288.15 K, m1 = 0.007975	0.007057
288.15 K, m1 = 0.009937	0.006944
288.15 K, m1 = 0.01205	0.00684
288.15 K, m1 = 0.01487	0.006715
293.15 K, m1 = 0.0001225	0.008604
293.15 K, m1 = 0.0002931	0.008516
293.15 K, m1 = 0.0004907	0.008442
293.15 K, m1 = 0.0007255	0.008372
293.15 K, m1 = 0.001177	0.008263
293.15 K, m1 = 0.001892	0.00813
293.15 K, m1 = 0.002911	0.007981
293.15 K, m1 = 0.003932	0.00786
293.15 K, m1 = 0.005979	0.007668
293.15 K, m1 = 0.007979	0.00752
293.15 K, m1 = 0.009955	0.007398
293.15 K, m1 = 0.01193	0.007292
293.15 K, m1 = 0.0148	0.007155
298.15 K, m1 = 0.0001133	0.009167
298.15 K, m1 = 0.0002704	0.009077
298.15 K, m1 = 0.000473	0.008993
298.15 K, m1 = 0.0006719	0.008926
298.15 K, m1 = 0.001151	0.008798
298.15 K, m1 = 0.001932	0.008639
298.15 K, m1 = 0.00291	0.008486
298.15 K, m1 = 0.003882	0.008361
298.15 K, m1 = 0.005957	0.008152
298.15 K, m1 = 0.007912	0.007996
298.15 K, m1 = 0.009961	0.007859
298.15 K, m1 = 0.012	0.007742
298.15 K, m1 = 0.01485	0.007598
303.15 K, m1 = 0.0001433	0.009709
303.15 K, m1 = 0.0002976	0.009622
303.15 K, m1 = 0.000507	0.009532
303.15 K, m1 = 0.0007136	0.00946
303.15 K, m1 = 0.001172	0.00933
303.15 K, m1 = 0.001894	0.009172
303.15 K, m1 = 0.002913	0.008999
303.15 K, m1 = 0.003926	0.008861
303.15 K, m1 = 0.005879	0.008649
303.15 K, m1 = 0.007956	0.008471
303.15 K, m1 = 0.009924	0.00833
303.15 K, m1 = 0.01202	0.0082
303.15 K, m1 = 0.01489	0.00805
308.15 K, m1 = 0.0001026	0.01031
308.15 K, m1 = 0.0003641	0.010155
308.15 K, m1 = 0.0005016	0.010095
308.15 K, m1 = 0.0006664	0.010033
308.15 K, m1 = 0.001147	0.009884
308.15 K, m1 = 0.001947	0.009697
308.15 K, m1 = 0.002894	0.009525
308.15 K, m1 = 0.003883	0.009379
308.15 K, m1 = 0.00584	0.009149
308.15 K, m1 = 0.007991	0.008948
308.15 K, m1 = 0.00998	0.008792
308.15 K, m1 = 0.01192	0.008661
308.15 K, m1 = 0.01486	0.008494
313.15 K, m1 = 9.519e-05	0.010895
313.15 K, m1 = 0.0002775	0.010772
313.15 K, m1 = 0.000472	0.010677
313.15 K, m1 = 0.0006836	0.010592
313.15 K, m1 = 0.001159	0.010438
313.15 K, m1 = 0.001948	0.010242
313.15 K, m1 = 0.002909	0.010057
313.15 K, m1 = 0.003934	0.009897
313.15 K, m1 = 0.005955	0.009647
313.15 K, m1 = 0.007964	0.009449
313.15 K, m1 = 0.009905	0.009289
313.15 K, m1 = 0.01192	0.009147
313.15 K, m1 = 0.0152	0.008968
318.15 K, m1 = 0.0001002	0.011475
318.15 K, m1 = 0.0002722	0.011357
318.15 K, m1 = 0.0004294	0.011275
318.15 K, m1 = 0.0006853	0.011165
318.15 K, m1 = 0.001173	0.011
318.15 K, m1 = 0.001899	0.010808
318.15 K, m1 = 0.002947	0.010593
318.15 K, m1 = 0.003909	0.010433
318.15 K, m1 = 0.005941	0.010163
318.15 K, m1 = 0.007935	0.009952
318.15 K, m1 = 0.009999	0.00977
318.15 K, m1 = 0.012	0.009623
318.15 K, m1 = 0.01494	0.009458
